According to patent US9676704B2, “Pesticidal compositions and processes related thereto” (Dow AgroSciences LLC, priority 2014, dated 2017):
Where two headings read alike, the source gives them in different places.

How the values were obtained:
Beet Armyworm (BAW) = assay: Bioassays on BAW, 128-well diet tray assay; type: in vivo; conditions: Spodoptera exigua, 168 h, read-out: BAW % Control (or Mortality) rating
Method: Bioassays on BAW were conducted using a 128-well diet tray assay. one to five second instar BAW larvae were placed in each well (3 mL) of the diet tray that had been previously filled with 1 mL of artificial diet to which 50 μg/cm^2 of the test compound (dissolved in 50 μL of 90:10 acetone-water mixture) had been applied (to each of eight wells) and then allowed to dry. Trays were covered with a clear self-adhesive cover, and held at 25° C., 14:10 light-dark for five to seven days. Percent mortality was recorded for the larvae in each well; activity in the eight wells was then averaged. The results are indicated in the tables entitled “Table ABC: Assay Results (F)”, “Table ABCD: Assay Results (C)”, and “Table ABCDE: Assay Results (P)” (See Table Section).
(§1) Bioassays on BAW and CL were conducted according to the procedures outlined in Example A: Bioassays on Beet Armyworm (“BAW”) and Cabbage Looper (“CL”) using the following concentrations: 5, 0.5, and 0.05 μg/cm^2.

Cabbage Looper (CL) = assay: Bioassays on CL, 128-well diet tray assay; type: in vivo; conditions: Trichoplusia ni, 168 h, read-out: CL % Control (or Mortality) rating
Method: Bioassays on CL were conducted using a 128-well diet tray assay. One to five second instar CL larvae were placed in each well (3 mL) of the diet tray that had been previously filled with 1 mL of artificial diet to which 50 μg/cm^2 of the test compound (dissolved in 50 μL of 90:10 acetone-water mixture) had been applied (to each of eight wells) and then allowed to dry. Trays were covered with a clear self-adhesive cover, and held at 25° C., 14:10 light-dark for five to seven days. Percent mortality was recorded for the larvae in each well; activity in the eight wells was then averaged. The results are indicated in the table entitled “Table ABC: Assay Results (F)”, “Table ABCD: Assay Results (C)”, and “Table ABCDE: Assay Results (P)” (See Table Section).
as §1

[1] = system: Yellow Fever Mosquito (YFM); type: in vivo, Aedes aegypti; conditions: 15 μL of diluted 4000 ppm master solution per well, about 1 day-old larvae, 3 days
Method: Master plates containing 400 μg of a molecule dissolved in 100 μL of dimethyl sulfoxide (DMSO) (equivalent to a 4000 ppm solution) are used. A master plate of assembled molecules contains 15 μL per well. To this plate, 135 μL of a 90:10 water:acetone mixture is added to each well. A robot (Biomek® NXP Laboratory Automation Workstation) is programmed to dispense 15 μL aspirations from the master plate into an empty 96-well shallow plate (“daughter” plate). There are 6 reps (“daughter” plates) created per master. The created daughter plates are then immediately infested with YFM larvae. The day before plates are to be treated, mosquito eggs are placed in Millipore water containing liver powder to begin hatching (4 g. into 400 mL). After the daughter plates are created using the robot, they are infested with 220 μL of the liver powder/larval mosquito mixture (about 1 day-old larvae). After plates are infested with mosquito larvae, a non-evaporative lid is used to cover the plate to reduce drying. Plates are held at room temperature for 3 days prior to grading. After 3 days, each well is observed and scored based on mortality. The results are indicated in the table entitled “Table ABC: Assay Results (F)” and “Table ABCD: Assay Results (C)” (See Table Section). Pesticidally Acceptable Acid Addition Salts, Salt Derivatives, Solvates, Ester Derivatives, Polymorphs, Isotopes and Radionuclides

[2] = 50 μg/cm^2 on artificial diet, second instar larvae, five to seven days, 25° C.

SMILES | mortality at 50 µg/cm2 (Beet Armyworm (BAW); [2]) [%] | mortality at 50 µg/cm2 (Cabbage Looper (CL); [2]) [%] | YFM % Control (or Mortality) rating [1] | mortality at 50 µg/cm2 (Beet Armyworm (BAW)) [%] | mortality at 50 µg/cm2 (Cabbage Looper (CL)) [%]
CC(NC(=O)c1ccc(/C=C/C(c2cc(Cl)c(Cl)c(Cl)c2)C(F)(F)F)cc1C(F)(F)F)NC(=O)C(C)(C)C (stereo in doubt) [Compound F19, N—((S)-1-Pivalamidoethyl)-4-((E)-4,4,4-trifluoro-3-(3,4,5-trichlorophenyl)but-1-en-1-yl)-2-(trifluoromethyl)benzamide] | 50 to 100 | 50 to 100 | A (80-100) | – | –
CN(NC(=O)c1ccc(/C=C/C(c2cc(Cl)c(Cl)c(Cl)c2)C(F)(F)F)cc1C(F)(F)F)C(=O)OC(C)(C)C (stereo not drawn) [Compound C116, (E)-tert-butyl 1-methyl-2-(4-(4,4,4-trifluoro-3-(3,4,5-trichlorophenyl)but-1-en-1-yl)-2-(trifluoromethyl)benzoyl)hydrazinecarboxylate] | – | – | A (80-100) | 50 to 100 | 50 to 100
CCCCCC(=O)N[C@@H](C)NC(=O)c1ccc(/C=C/C(c2cc(Cl)c(Cl)c(Cl)c2)C(F)(F)F)cc1C(F)(F)F (stereo partly drawn) [Compound F3, N—((R)-1-hexanamidoethyl)-4-((E)-4,4,4-trifluoro-3-(3,4,5-trichlorophenyl)but-1-en-1-yl)-2-(trifluoromethyl)benzamide] | 50 to 100 | 50 to 100 | A (80-100) | – | –
CC(C)CCC(=O)N[C@@H](C)NC(=O)c1ccc(/C=C/C(c2cc(Cl)c(Cl)c(Cl)c2)C(F)(F)F)cc1C(F)(F)F (stereo partly drawn) [Compound F4, N—((R)-1-(4-Methylpentanamido)ethyl)-4-((E)-4,4,4-trifluoro-3-(3,4,5-trichlorophenyl)but-1-en-1-yl)-2-(trifluoromethyl)benzamide] | 50 to 100 | 50 to 100 | A (80-100) | – | –
CCCCC(=O)N[C@@H](C)NC(=O)c1ccc(/C=C/C(c2cc(Cl)c(Cl)c(Cl)c2)C(F)(F)F)cc1C(F)(F)F (stereo partly drawn) [Compound F5, N—((R)-1-Pentanamidoethyl)-4-((E)-4,4,4-trifluoro-3-(3,4,5-trichlorophenyl)but-1-en-1-yl)-2-(trifluoromethyl)benzamide] | 50 to 100 | 50 to 100 | A (80-100) | – | –
CC(C)CC(=O)N[C@@H](C)NC(=O)c1ccc(/C=C/C(c2cc(Cl)c(Cl)c(Cl)c2)C(F)(F)F)cc1C(F)(F)F (stereo partly drawn) [Compound F6, N—((R)-1-(3-Methylbutanamido)ethyl)-4-((E)-4,4,4-trifluoro-3-(3,4,5-trichlorophenyl)but-1-en-1-yl)-2-(trifluoromethyl)benzamide] | 50 to 100 | 50 to 100 | A (80-100) | – | –
C[C@@H](NC(=O)c1ccc(/C=C/C(c2cc(Cl)c(Cl)c(Cl)c2)C(F)(F)F)cc1C(F)(F)F)NC(=O)C1CC1 (stereo partly drawn) [Compound F7, N—((R)-1-(Cyclopropanecarboxamido)ethyl)-4-((E)-4,4,4-trifluoro-3-(3,4,5-trichlorophenyl)but-1-en-1-yl)-2-(trifluoromethyl)benzamide] | 50 to 100 | 50 to 100 | A (80-100) | – | –
CC(C)=CC(=O)N[C@@H](C)NC(=O)c1ccc(/C=C/C(c2cc(Cl)c(Cl)c(Cl)c2)C(F)(F)F)cc1C(F)(F)F (stereo partly drawn) [Compound F8, N—((R)-1-(3-Methylbut-2-enamido)ethyl)-4-((E)-4,4,4-trifluoro-3-(3,4,5-trichlorophenyl)but-1-en-1-yl)-2-(trifluoromethyl)benzamide] | 50 to 100 | 50 to 100 | A (80-100) | – | –
C[C@H](NC(=O)CCC#N)NC(=O)c1ccc(/C=C/C(c2cc(Cl)c(Cl)c(Cl)c2)C(F)(F)F)cc1C(F)(F)F (stereo partly drawn) [Compound F9, N—((R)-1-(3-cyanopropanamido)ethyl)-4-((E)-4,4,4-trifluoro-3-(3,4,5-trichlorophenyl)but-1-en-1-yl)-2-(trifluoromethyl)benzamide] | 50 to 100 | 50 to 100 | A (80-100) | – | –
C[C@H](NC(=O)CCCC(F)(F)F)NC(=O)c1ccc(/C=C/C(c2cc(Cl)c(Cl)c(Cl)c2)C(F)(F)F)cc1C(F)(F)F (stereo partly drawn) [Compound F10, 4-((E)-4,4,4-Trifluoro-3-(3,4,5-trichlorophenyl)but-1-en-1-yl)-2-(trifluoromethyl)-N—((R)-1-(5,5,5-trifluoropentanamido)ethyl)benzamide] | 50 to 100 | 50 to 100 | A (80-100) | – | –
C[C@H](NC(=O)CC#N)NC(=O)c1ccc(/C=C/C(c2cc(Cl)c(Cl)c(Cl)c2)C(F)(F)F)cc1C(F)(F)F (stereo partly drawn) [Compound F11, N—((R)-1-(2-Cyanoacetamido)ethyl)-4-((E)-4,4,4-trifluoro-3-(3,4,5-trichlorophenyl)but-1-en-1-yl)-2-(trifluoromethyl)benzamide] | 50 to 100 | 50 to 100 | A (80-100) | – | –
CC[C@H](NC(=O)CCC(F)(F)F)NC(=O)c1ccc(/C=C/C(c2cc(Cl)c(Cl)c(Cl)c2)C(F)(F)F)cc1C(F)(F)F (stereo partly drawn) [Compound F12, 4-((E)-4,4,4-Trifluoro-3-(3,4,5-trichlorophenyl)but-1-en-1-yl)-N—((R)-1-(4,4,4-trifluorobutanamido)propyl)-2-(trifluoromethyl)benzamide] | 50 to 100 | 50 to 100 | A (80-100) | – | –
C[C@@H](NC(=O)c1ccc(/C=C/C(c2cc(Cl)c(Cl)c(Cl)c2)C(F)(F)F)cc1C(F)(F)F)NC(=O)C1(C#N)CC1 (stereo partly drawn) [Compound F14, N—((S)-1-(1-cyanocyclopropanecarboxamido)ethyl)-4-((E)-4,4,4-trifluoro-3-(3,4,5-trichlorophenyl)but-1-en-1-yl)-2-(trifluoromethyl)benzamide] | 50 to 100 | 50 to 100 | A (80-100) | – | –
C[C@H](NC(=O)CC(C)(C)C)NC(=O)c1ccc(/C=C/C(c2cc(Cl)c(Cl)c(Cl)c2)C(F)(F)F)cc1C(F)(F)F (stereo partly drawn) [Compound F15, N—((R)-1-(3,3-Dimethylbutanamido)ethyl)-4-((E)-4,4,4-trifluoro-3-(3,4,5-trichlorophenyl)but-1-en-1-yl)-2-(trifluoromethyl)benzamide] | 50 to 100 | 50 to 100 | A (80-100) | – | –
CC(CC(=O)N[C@@H](C)NC(=O)c1ccc(/C=C/C(c2cc(Cl)c(Cl)c(Cl)c2)C(F)(F)F)cc1C(F)(F)F)C(F)(F)F (stereo partly drawn) [Compound F16, 4-((E)-4,4,4-Trifluoro-3-(3,4,5-trichlorophenyl)but-1-en-1-yl)-N-((1R)-1-(4,4,4-trifluoro-3-methylbutanamido)ethyl)-2-(trifluoromethyl)benzamide] | 50 to 100 | 50 to 100 | A (80-100) | – | –
C[C@H](NC(=O)CCC(C)(C)C)NC(=O)c1ccc(/C=C/C(c2cc(Cl)c(Cl)c(Cl)c2)C(F)(F)F)cc1C(F)(F)F (stereo partly drawn) [Compound F17, N—((R)-1-(4,4-Dimethylpentanamido)ethyl)-4-((E)-4,4,4-trifluoro-3-(3,4,5-trichlorophenyl)but-1-en-1-yl)-2-(trifluoromethyl)benzamide] | 50 to 100 | 50 to 100 | A (80-100) | – | –
C[C@H](NC(=O)CCCC(C)(C)C)NC(=O)c1ccc(/C=C/C(c2cc(Cl)c(Cl)c(Cl)c2)C(F)(F)F)cc1C(F)(F)F (stereo partly drawn) [Compound F18, N—((R)-1-(5,5-Dimethylhexanamido)ethyl)-4-((E)-4,4,4-trifluoro-3-(3,4,5-trichlorophenyl)but-1-en-1-yl)-2-(trifluoromethyl)benzamide] | 50 to 100 | 50 to 100 | A (80-100) | – | –
